One assay concerns the target T1, N–Flag–α4β3 receptors (Homo sapiens, UniProt P28472+P48169).
T1 construct: expressed in transfected cells
Put plainly: Whole-cell patch-clamp of GABA-elicited currents in the control N-Flag-α4β3 cell line. It counts as cell-based. The conditions noted are these: drug 10 μM co-applied for 4 s, 10 mM GABA, notch protocol. The procedure: HEK 293 cells stably expressing tetracycline inducible α4β3N-Flag-δ or N-Flag-α4β3 GABAA receptors were cultured on glass coverslips and induced with tetracycline (2μg/ml) 24 hours before recordings. The coverslips were placed in a recording chamber and perfused with the bath solution. Cells were voltage clamped at -50 mV using the patch clamp amplifier (Axopatch 200A, Molecular Devices, Sunnyvale, CA). GABAA receptor-mediated chloride currents from HEK cells were recorded using the whole-cell configuration of patch-clamp electrophysiology. Data was acquired using Clampex version 8.1 (Molecular Devices), digitized at 10 kHz and filtered at 5 kHz. Current traces were analyzed using Clampfit version 9 (Molecular Devices). Series resistance ranged from 0.5–4 MΩ and cell capacitances from 9–18 pF. Membrane-capacitance and series-resistance were compensated electronically by > 85% with a lag of 10 μ seconds. […]
Statistical analysis for electrophysiology was done using GraphPad Prism 6. […] For Western blotting, the ratio of the signal intensity of individual antibodies for each sample was determined. Pooled (weighted) mean and standard deviation was determined for each receptor and p value determined by two-tailed unpaired Student’s t-test, using GraphPad QuickCalcs software.
A general note: Patch clamp records ionic current or voltage across a cell membrane.

For a further assay, the target named is T2, α4β3N–Flag–δ GABAAR (Homo sapiens, UniProt O14764+P28472+P48169).
T2 construct: expressed in transfected cells
T2 sequence (P48169 36-554): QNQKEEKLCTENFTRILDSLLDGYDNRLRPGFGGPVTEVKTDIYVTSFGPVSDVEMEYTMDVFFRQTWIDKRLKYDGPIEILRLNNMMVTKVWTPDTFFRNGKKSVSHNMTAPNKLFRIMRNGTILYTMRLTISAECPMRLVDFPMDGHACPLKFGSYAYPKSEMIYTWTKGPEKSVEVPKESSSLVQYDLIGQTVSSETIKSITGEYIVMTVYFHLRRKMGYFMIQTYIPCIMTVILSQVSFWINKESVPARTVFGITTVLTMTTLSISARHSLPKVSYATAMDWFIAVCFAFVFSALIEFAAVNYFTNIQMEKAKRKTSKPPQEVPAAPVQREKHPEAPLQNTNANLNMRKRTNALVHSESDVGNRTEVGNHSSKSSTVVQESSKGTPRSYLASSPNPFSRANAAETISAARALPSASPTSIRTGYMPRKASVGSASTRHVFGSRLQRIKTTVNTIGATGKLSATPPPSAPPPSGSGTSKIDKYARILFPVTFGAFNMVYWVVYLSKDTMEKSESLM
T2 sequence (P28472 26-473 isoform P28472-2 limits assumed): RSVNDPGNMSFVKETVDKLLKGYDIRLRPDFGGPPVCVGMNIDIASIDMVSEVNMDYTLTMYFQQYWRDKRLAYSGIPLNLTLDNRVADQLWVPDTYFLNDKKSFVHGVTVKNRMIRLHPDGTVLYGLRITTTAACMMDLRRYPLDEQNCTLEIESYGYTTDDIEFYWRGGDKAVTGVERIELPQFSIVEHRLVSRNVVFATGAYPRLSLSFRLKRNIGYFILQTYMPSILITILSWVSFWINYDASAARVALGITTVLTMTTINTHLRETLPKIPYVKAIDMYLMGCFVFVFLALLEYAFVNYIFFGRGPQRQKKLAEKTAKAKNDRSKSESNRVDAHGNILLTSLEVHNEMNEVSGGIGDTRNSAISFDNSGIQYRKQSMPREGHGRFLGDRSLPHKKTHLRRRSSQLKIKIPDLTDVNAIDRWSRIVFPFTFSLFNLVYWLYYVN
T2 sequence (O14764 25-452): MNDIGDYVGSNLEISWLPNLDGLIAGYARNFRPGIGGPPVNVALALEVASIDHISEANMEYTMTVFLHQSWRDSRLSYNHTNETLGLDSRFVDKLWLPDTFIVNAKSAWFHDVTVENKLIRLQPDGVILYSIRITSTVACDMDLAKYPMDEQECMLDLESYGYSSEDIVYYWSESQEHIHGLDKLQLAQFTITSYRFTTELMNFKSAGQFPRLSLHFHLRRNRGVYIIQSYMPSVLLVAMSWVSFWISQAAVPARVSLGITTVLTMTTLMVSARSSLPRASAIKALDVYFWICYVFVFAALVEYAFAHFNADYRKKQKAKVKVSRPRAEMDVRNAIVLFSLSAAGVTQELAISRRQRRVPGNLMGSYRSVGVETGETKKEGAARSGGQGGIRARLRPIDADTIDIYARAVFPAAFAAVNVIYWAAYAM
Put plainly: Whole-cell patch-clamp of GABA-elicited currents in the induced α4β3N-Flag-δ cell line. It counts as cell-based. The conditions noted are these: for enhancement of maximum GABA elicited currents: drug 10 μM co-applied for 4 s, notch protocol. The method, then:
HEK 293 cells stably expressing tetracycline inducible α4β3N-Flag-δ or N-Flag-α4β3 GABAA receptors were cultured on glass coverslips and induced with tetracycline (2μg/ml) 24 hours before recordings. The coverslips were placed in a recording chamber and perfused with the bath solution. Cells were voltage clamped at -50 mV using the patch clamp amplifier (Axopatch 200A, Molecular Devices, Sunnyvale, CA). GABAA receptor-mediated chloride currents from HEK cells were recorded using the whole-cell configuration of patch-clamp electrophysiology. Data was acquired using Clampex version 8.1 (Molecular Devices), digitized at 10 kHz and filtered at 5 kHz. Current traces were analyzed using Clampfit version 9 (Molecular Devices). Series resistance ranged from 0.5–4 MΩ and cell capacitances from 9–18 pF. Membrane-capacitance and series-resistance were compensated electronically by > 85% with a lag of 10 μ seconds. Drugs were delivered via a multichannel superfusion pipette coupled to a piezoelectric elements that switched superfusion solution in < 1 millisecond. The recording chamber was continuously perfused with the bath solution in mM: 145 NaCl, 5 KCl, 10 HEPES, 2 CaCl2, and 1 MgCl2, 10 glucose, pH 7.4 (pH adjusted with N-methyl glucosamine). The pipette solution for whole-cell recordings contained in mM: 140 KCl, 10 HEPES, 1 EGTA and 2 MgCl2 at pH 7.3 (pH adjusted with KOH). Open pipette resistances ranged from 1.6–3 M. Errors are standard deviation from at least three replicas.
(§1) Statistical analysis for electrophysiology was done using GraphPad Prism 6. […] Analysis of the [^3H]muscimol binding was carried out using Igor Pro 7 (WaveMetrics). For Western blotting, the ratio of the signal intensity of individual antibodies for each sample was determined. Pooled (weighted) mean and standard deviation was determined for each receptor and p value determined by two-tailed unpaired Student’s t-test, using GraphPad QuickCalcs software.

For assay [1], the target named is T3, α4β3N-Flag-δ GABAA receptor reconstituted into CHAPS/lipid micelles (Homo sapiens, UniProt O14764+P28472+P48169).
T3 construct: made in house; DDM solubilization, anti-Flag beads, elution with Flag peptide into CHAPS/lipid
T3 sequence (P48169 36-554): as the sequence (P48169 36-554) above
T3 sequence (P28472 26-473 isoform P28472-2 limits assumed): as the sequence (P28472 26-473 isoform P28472-2 limits assumed) above
T3 sequence (O14764 25-452): as the sequence (O14764 25-452) above
Put plainly: [3H]muscimol binding to purified receptor reconstituted into CHAPS/lipid micelles. The method, then: Cells with inducible expression of N-Flag-α4β3 and α4β3N-Flag-δ were induced with tetracycline (1 μg/ml final concentration, Life Technologies) and 5 mM sodium butyrate (Sigma-Aldrich, St. Louis, MO) for 24 hours and harvested in 10 ml per ten 15 cm–dishes of 10 mM HEPES, 1 mM EDTA (buffer A) freshly supplemented with protease inhibitors and 1 mM PMSF (final concentration) at 4°C with all subsequent purification procedures carried out at 4°C. Cells were homogenized with three cycles of 10 s each separated by 30 s intervals (Ultra Turrax T25, IKA Works, Wilmington, NC), followed by 20 strokes in Kontes-Duval glass tissue grinder. Homogenate was centrifuged at 43,000 x g for 30 min at 4°C and the pellet was resuspended in the buffer A and the entire procedure repeated. The resulting pellet was resuspended in the buffer A and a final homogenization carried out by aspiration with a 21-gauge needle and expulsed through 27-gauge needle. Concentration of total protein was assessed with the Pierce BCA protein assay kit (Pierce, Rockford, IL). Under constant stirring, the membrane fraction was solubilized over 30 min by dropwise addition of 30 mM DDM (Anatrace, Maumee, OH) in buffer B (50 mM Tris/HCl, 150 mM NaCl, 2 mM CaCl2, 5 mM KCl, 5 mM MgCl2, 4 mM EDTA, pH 7.5) and 10% glycerol, supplemented with protease inhibitors and 1 mM PMSF, with the volume adjusted to produce an effective protein concentration of 1 mg/ml. Following an additional 2 hours of solubilization, the solution was centrifuged at 45,000 x g for 30 min at 4°C. Insoluble material in the pellet was discarded and the supernatant was stored in liquid nitrogen overnight.
After washing once with buffer B, 2 ml of Flag beads (Sigma-Aldrich) were pre-treated overnight at 4°C on polypropylene columns (Qiagen, Hilden, Germany) with 1.5 ml of 10 mg/ml poly-d-Lysine hydrobromide with gentle agitation. On the following day, beads were washed three times with six 2–ml volumes of buffer B with 10% glycerol and incubated with solubilized membrane fractions with gentle agitation for 2 hours. Once transferred back into propylene columns, beads were washed once with wash buffer (17 mM CHAPS, 8.5 mM asolectin in buffer B with 10% glycerol, homogenized with glass grinder and sonicated for 10 min), equilibrated with the same buffer for 1 hour with agitation and washed again. Two more washes with elution buffer (5 mM CHAPS, 200 μM asolectin in buffer B with 10% glycerol, prepared as with wash buffer) were performed prior to elution of receptors by incubation with two x 2–ml of elution buffer supplemented with 0.15 mg/ml of Flag peptide (Sigma-Aldrich) for 2 hours with gentle rocking (elution 1). Second elution (elution 2) and another overnight incubation with 2–ml (elution 3) followed.
[…] […] […] […] The curves were fitted by nonlinear least squares with weighting by standard deviation. These yielded apparent dissociation constants of 9.2 ± 0.6 and 35 ± 12 nM, respectively. The Bmax of the membranes was 22.6 ± 0.5 pmol/mg and for reconstituted receptors in micelles was 19 ± 3 pmol/mL. The Hill coefficients differed little from one (1.07 ± 0.3 and 0.90 ± 0.05 respectively).

For assay [2], the target named is T4, α4β3N-Flag-δ GABAA receptor in native membranes (Homo sapiens, UniProt O14764+P28472+P48169).
T4 construct: expressed in transfected cells
T4 sequence (P48169 36-554): as the sequence (P48169 36-554) above
T4 sequence (P28472 26-473 isoform P28472-2 limits assumed): as the sequence (P28472 26-473 isoform P28472-2 limits assumed) above
T4 sequence (O14764 25-452): as the sequence (O14764 25-452) above
In words: [3H]muscimol binding (filtration assay) to cell membranes. The method, then: Radioactive ligand binding assays were carried out as previously described, with the exception that GABAAR binding sites were assayed at 250 nM [^3H]muscimol because of this receptor’s higher affinity.
as §1
Fig 3 The binding isotherm of the agonist [^3H]muscimol to the α4β3N-Flag-δ GABAA receptor in native membranes and reconstituted into CHAPS/lipid micelles. Binding curves of [^3H]muscimol to α4β3N–Flag–δ GABAΑRs, both, in cell membranes (pmol/mg membrane protein) and after purification and reconstitution into micelles of 5 mM CHAPS and 200 μM DOPC:DOPS:Cholesterol in mole ratio 52:15:33 (pmol/mL). […] The displaceable binding and its standard deviation was determined by subtracting these two values and propagating errors at each total muscimol concentration. The curves were fitted by nonlinear least squares with weighting by standard deviation. These yielded apparent dissociation constants of 9.2 ± 0.6 and 35 ± 12 nM, respectively. The Bmax of the membranes was 22.6 ± 0.5 pmol/mg and for reconstituted receptors in micelles was 19 ± 3 pmol/mL. The Hill coefficients differed little from one (1.07 ± 0.3 and 0.90 ± 0.05 respectively).

The subject of the next assay is α4β3γ2 receptors. The conditions noted are these: cited from earlier work.
Another assay concerns α4β3δ receptors. The conditions noted are these: cited from earlier work.
For assay [3], the system named is concatenated subunits β3-α1-δ/β3-α1. The conditions noted are these: cited from earlier work.
Another assay has as its system α1β3δ GABAARs. Also noted: method as in PMID 27493204. The conditions noted are these: cited from earlier work; for degree of desensitization: in 4 seconds.
[4] abbreviates: 2 nM [3H]muscimol, reconstituted.
Setting [5] is: after 8.5 ms pulse of 100 μM GABA, two exponentials.
The mark [6] stands for this setting: linear fit of activation rate up to ~10 μM GABA.
Where [7] appears, read: CHAPS/DOPC:DOPS:Cholesterol micelles.

Like-named read-outs stand apart in the source and are kept apart here.

Usually EC50 stands for the concentration giving half of the maximal effect.

T1 sequence (P48169 36-554): as the sequence (P48169 36-554) above
T1 sequence (P28472 26-473 isoform P28472-2 limits assumed): as the sequence (P28472 26-473 isoform P28472-2 limits assumed) above

Regarding `CCOC(=O)c1cncn1[C@H](C)c1ccccc1` [etomidate], the “enhancement of maximum GABA elicited currents” value on N–Flag–α4β3 receptors was found to be 490 ± 84%; at α4β3N–Flag–δ GABAAR (10 mM GABA), 540 ± 235%.

For the compound `O=C(Nc1c(-c2cccs2)nc2ccccn12)c1ccc(Cl)cc1` [DS2], the “enhancement of maximum GABA elicited currents” value on N–Flag–α4β3 receptors is recorded as 12 ± 7%; at α4β3N–Flag–δ GABAAR (10 mM GABA) it was 230 ± 63%. The EC50 amounted to 2300 ± 800 nM in assay [1] (2 nM [3H]muscimol, CHAPS/PC:PS:Cholesterol micelles, read-out: EC50 of modulation of [3H]muscimol binding) and 2000 ± 700 nM in assay [2] (2 nM [3H]muscimol, native membranes, read-out: EC50 of modulation of [3H]muscimol binding). Further, the “Hill coefficient of modulation of [3H]muscimol binding” value in assay [1] (setting [4]) was determined as 1.2 ± 0.5; in assay [2] (2 nM [3H]muscimol, membranes) it was 0.9 ± 0.2. Further, the “maximum modulation of [3H]muscimol binding” value in assay [1] (setting [4]) is given as 132 ± 4%; in assay [2] (2 nM [3H]muscimol, membranes), 139 ± 4%. The “enhancement of displaceable [3H]muscimol binding” value in assay [1] (DS2 30 μM, [3H]muscimol 2 nM, CHAPS/lipid micelles) is listed as 128 ± 11%; in assay [2] (DS2 30 μM, [3H]muscimol 2 nM, membranes) it was 142 ± 12%.

Consider picrotoxin, for which the “fraction of spontaneously open receptors (picrotoxin-inhibited current)” value on α4β3N–Flag–δ GABAAR (2 mM picrotoxin for 8 s, relative to current with 10 mM GABA + 10 μM etomidate) was “about 3.2 ± 0.6%”.

Consider `NCCCC(=O)O` [GABA, γ-aminobutyric acid], for which the “k+1 apparent forward GABA binding rate” value in the assay with α4β3γ2 receptors was 6 x 10^6 s^–1M^–1; at α4β3N–Flag–δ GABAAR (setting [6]), 5.7 ± 0.2 x 10^6 s^–1M^–1. In addition, the “desensitization time constant τ” value is 4.8 s with α4β3δ receptors (100 μM GABA) and 2.6 ± 0.9 s at α4β3N–Flag–δ GABAAR (8-sec exposure to GABA 1–100 μM, all concentrations averaged). The rise time in the assay on α4β3δ receptors (100 μM GABA) is ~ 100 ms. Besides, the deactivation time constant is ~ 400 ms with α4β3δ receptors (lower time resolution perfusion system) and ~ 50 ms in assay [3]. The desensitization time constant in assay [3] (1 mM GABA) is on record as 4.7 s. In addition, the degree of desensitization in assay [3] (after 4 s at 1 mM GABA) is recorded as ~ 40%; in the assay with α1β3δ GABAARs (much lower transfection ratios) it was 40–70%; with α1β3δ GABAARs (transfection ratios similar to the authors'), “little desensitization”; on α4β3N–Flag–δ GABAAR (in 4 seconds at 100 μM GABA), ~ 70%. For the same compound, the “10–90% rise times” value in the assay on α1β3δ GABAARs (1 mM GABA, depending on the construct ratio) is 4 to 22 ms. Moreover, the “deactivation rate (time)” value was ~ 170 ms with α1β3δ GABAARs (construct ratio 1:1:0.3) and 100 to 200 ms in the assay with α1β3δ GABAARs (varied with ratio of constructs transfected). The results for the “activation time constant τ” value at α4β3N–Flag–δ GABAAR (0.1 μM GABA) and at α4β3N–Flag–δ GABAAR (100 μM GABA) were 165 ± 20 ms and 6 ± 1 ms, respectively. Further, at α4β3N–Flag–δ GABAAR (10 mM GABA, assumes 10 mM GABA + 10 μM etomidate opens 100% of channels), the “fraction of available channels opened (efficacy of GABA)” value was found to be 17 ± 6%. In addition, the “fraction of total current decay amplitude occupied by fastest phase” value on α4β3N–Flag–δ GABAAR (after 8.5 ms pulse of 100 μM GABA) stood at 76 ± 12%. For the same compound, the “deactivation time constant, fastest phase” value at α4β3N–Flag–δ GABAAR (setting [5]) turned out to be 175 ± 50 ms. On α4β3N–Flag–δ GABAAR (setting [5]), the “deactivation time constant, slow phase” value amounted to 1100 ± 440 ms. For the same compound, the “k–1 apparent reverse GABA binding rate” value at α4β3N–Flag–δ GABAAR (setting [6]) stood at 5 ± 1 s^–1. For the same compound, the “Hill coefficient of GABA concentration-response curve” value on α4β3N–Flag–δ GABAAR (peak currents normalized to 10 mM GABA) stood at 1.5 ± 0.24.

Regarding `NCc1cc(=O)[nH]o1` [[^3H]muscimol], the Kd in assay [1] (5 mM CHAPS and 200 μM DOPC:DOPS:Cholesterol 52:15:33 micelles, read-out: apparent dissociation constant) turned out to be 35 ± 12 nM. Moreover, in assay [1] (setting [7]), the Bmax was found to be 19 ± 3 pmol/mL and the “Hill coefficient of binding isotherm” value is 0.90 ± 0.05. In addition, in assay [2] (cell membranes), the “Bmax (sites per mg of membrane protein)” value is 22.6 ± 0.5 pmol/mg. Moreover, the “apparent affinity relative to α1β3γ2 GABAAR cell line” value in assay [2] (higher than in previously developed α1β3γ2 cell line (refs 13, 26)) came out at 5 fold. The EC50 in assay [2] (read-out: apparent dissociation constant (EC50 of binding isotherm)) came to 9.2 ± 0.6 nM.

(Values after PMC5774841, “High-level production and purification in a functional state of an extrasynaptic gamma-aminobutyric acid type A receptor containing α4β3δ subunits” (PLoS ONE, 2018).)
